The values that follow are results of earlier work, collected in patent US20090176744A1, “Deuterated fingolimod” (CoNCERT Pharmaceuticals, Inc., priority 2007, published 2009).

The conditions of series [1]: general finding of cited clinical studies (Kahan 2003; Budde 2002; Ferguson 2003).
The conditions of series [2]: renal transplant patients; reversible upon cessation of treatment (Tedesco-Silva 2004).

Consider `CCCCCCCCc1ccc(CCC(N)(CO)CO)cc1.Cl` [fingolimod, 2-amino-2-[2-(4-octylphenyl)ethyl]-1,3-propanediol hydrochloride], for which the safety and tolerability result in series [1] is “safe and well-tolerated”. The heart rate entry in series [2] was “mild and transient reduction in heart rate”.
